In patent publication US9072901B2, “Cardiac neuromodulation and methods of using same” (The Board of Regents of the University of Oklahoma, priority 2001, dated 2015):
No end group written: not given here.

Columns and labels:
[1] = system: canine nodose ganglion afferent neuron; assay: Nodose ganglion afferent neuron activity after epicardial CPA; type: in vivo; details: CPA via 1 cm×1 cm pledget on ventral left ventricular epicardium
Method: Panel B was obtained 1 minute after terminating CPA application.

[2] = system: canine intrinsic cardiac neurons; assay: Intracellular recording of canine intrinsic cardiac neurons in vitro, ACh pulse with or without hexamethonium; type: cell-based; details: hexamethonium 100 μM for 5 min in perfusate
Method: The horizontal bar under the traces indicates application of a 10 ms pulse of ACh (1 mM) from the tip of a pipette placed near the ganglion. A, CONTROL. […] DCX. […] During the repolarization phase, the membrane potential began to oscillate with APs being discharged on oscillatory peaks. […] DCX. […] The bursting of activity is reflective of the enhanced muscarinic receptor-mediated responses of these neurons.
Intrinsic cardiac neurons remain responsive to cholinergic synaptic inputs. The cholinergic receptor systems are differentially affected by disruption of nerve inputs to the ICN, with muscarinic responsiveness being enhanced (FIG. 9). Non-cholinergic neurotransmitters can modulate the activity of these neurons. FIG. 10 illustrates the interaction between acetylcholine and the peptide, substance P.

[3] = system: intrinsic cardiac neurons; assay: Activity generated by right atrial (intrinsic cardiac) neurons recorded in situ in anesthetized dogs; type: in vivo, dog; details: for enhancement of intrinsic cardiac neuronal activity: epicardial veratridine 7.5 μM
T3 neurons = assay: T3 neuron activity with intrapericardial bradykinin and glutamate pledget on C1-C2 segments; type: in vivo, rats
Text: FIGS. 19A-19F show responses of T3 cell to chemical stimulation of glutamate before and after rostral C1 spinal transection. The responses were evoked by intrapericardial injections of bradykinin (BK). Saline was used as the control. Pledgets of glutamate placed on the C1-C2 dorsal spinal cord (B) decreased the discharge rate of the cell for the three minute period it was applied. The background activity recovered after glutamate was removed. […] The presence of glutamate attenuated this response (E). The increased rate of discharge to BK injections was again observed when glutamate was removed (F). In each panel, action potentials were recorded on a rate histogram.
Originally, it was assumed that supraspinal pathways are necessary for descending inhibitory effects of visceral afferents on sensory neurons. […] Thus, it appears that the upper cervical segments play an important role in the hierarchy that controls the efferent outflow to the intrathoracic and intrinsic cardiac nervous system. […]
Descending modulation of thoracic cardiac nociceptive transmission by upper cervical spinal neurons. […] Methods: Extracellular potentials of single T3 neurons were recorded in pentobarbital anesthetized male rats. […]

[4] = system: right atrial ganglionated plexus neurons; assay: Activity of right atrial ganglionated plexus neuron populations during epicardial chemical stimuli; type: in vivo; details: ventricular sensory inputs
Text: Arrow indicates application of veratridine to the epicardium of the left ventricle. At baseline, note the cycling of activity with a periodicity of 20 seconds. In the unstressed condition, this bursting is usually associated with increased coordination of activity between the two populations of neurons (see bottom trace).
Sub-populations of right atrial neurons that receive afferent inputs from sensory neurites in both ventricles are responsive to local mechanical stimuli and the nitric oxide donor nitroprusside. Neurons in at least one ganglionated plexus locus were activated by epicardial application of veratridine, bradykinin, the β1-adrenoceptor agonist prenaterol or the excitatory amino acid glutamate. […] These periods of coupled activity occurred every 30-50 second during basal states, as well as when neuronal activity was enhanced by chemical activation of their ventricular sensory inputs. It has been observed that neurons throughout one intrinsic cardiac ganglionated plexus receive inputs from mechano- and chemo-sensory neurites located in both ventricles. That such neurons respond to multiple chemical stimuli, including those liberated from adjacent adrenergic efferent nerve terminals, indicates the complexity of the integrative processing of information that occurs within the intrinsic cardiac nervous system.
Intraganglionic interactions within the intrinsic cardiac nervous system depend in large part on common shared afferent inputs and/or interconnections mediated via local circuit neurons. In order to evaluate these interactions, separate populations of neurons were recorded in the ventral right atrial ganglionated plexus (RAGP) in basal states and during discrete mechanical and chemical stimuli of ventricular neurites. In basal states, the coherence of activity generated by the two populations of RAGP neurons fluctuated with a periodicity of 30-50 s and with an average peak coherence of 0.88±0.03. Coherence was increased in conjunction with the enhanced neuronal activity evoked during exposure of ventricular sensory inputs to mechanical and chemical (nitroprusside, veratridine, bradykinin, adrenergic agonists or glutamate) stimuli.

[5] = system: intrinsic cardiac neurons; details: direct application; cited from earlier work
right atrial neurons = assay: Ventricular unipolar electrograms (ST segment) with ANG II administered to right atrial neurons, ameroid constrictor chronic ischemia; type: in vivo; details: ANG II 40 μg/min
Method: Under basal conditions, electrograms display slight ST segment displacement (panel B). Transient rapid ventricular pacing (240/min for 1 min), used to increase myocardial O2 demand, precipitates ischemic episodes. In the first beats following rapid pacing, ST segment displacement is inhomogeneously augmented in the LCx territory. Marked ST segment depression (−2 to −6 mV) occurs in some areas, whereas ST elevation (+2 to +15 mV) develops in others (panel C). […] Note that the ST changes, induced by ANG II, occurred at the apical margin of the plaque electrode, i.e., at the periphery of the LCx territory (Panel D). In contrast, the changes induced by transient rapid pacing occurred at a more central location in the LCx territory (panel C).
Note that the ST changes occurred at the apical margin of the plaque electrode (panel B). Thus, the ST segment changes are caused by direct or indirect activation of ganglionated plexus neurons that project efferent axons to the specific ventricular areas in which the changes occurred. […]
Dorsal column activation stabilizes ischemic myocardial electrical dysfunction. […] Four weeks later, under general anesthesia multiple ventricular unipolar electrograms were recorded in the normal and ischemic left ventricle during basal states and when ANG II (40 μg/min; 1 minute) was administered to right atrial neurons before and after DCA. […]

[6] = system: right atrial ganglionated plexus; assay: ISF, aorta and coronary sinus catecholamines (microdialysis) during ANG II infusion into blood supply of the RAGP; type: in vivo, dog
Method: FIGS. 8A-8C show ISF, aorta and coronary sinus norepinephrine (NE) and epinephrine (EPI) levels in response to stellate stimulation (4 Hz), angiotensin II (ANG II) infusion (100 μM, 1 ml/min) into the blood supply for the Right Atrial Ganglionated Plexus (RAGP) and Dorsal Cord Activation (DCA, 50 Hz, 200 μsec, 90% motor threshold). ISF fluids were sampled using the microdialysis techniques summarized in Aim 3.
LV dP/dt correlated with ISF NE release. However, NE spillover into the coronary sinus occurred only during sympathetic efferent neuronal stimulation (FIG. 8C). […] This differential release of catecholamines from cardiac nerves occurred in spite of a 40-fold higher NE compared to EPI content in the dog LV myocardium (237±33 vs. 6.4±1.0 ng/g). […] Dorsal cord activation (FIG. 8B) evoked a release of EPI into the ISF equivalent to stellate stimulation, but with only a modest increase in ISF NE.

intracardiac neuron = assay: Inhibition of ACh-evoked responses by substance P, intracellular recording; type: cell-based; details: bath application of 10 μM substance P; 28 ms puffs of ACh 10 mM
Method: Local application of ACh evoked action potentials. These ACh evoked potentials were blocked during bath application of 10 μM substance P (see horizontal bar).

## OC[C@H]1O[C@@H](n2cnc3c(NC4CCCC4)ncnc32)[C@H](O)[C@@H]1O [CPA]
[1]
  activity generated by nodose ganglion afferent neuron: enhancement of the activity

## C[N+](C)(C)CCCCCC[N+](C)(C)C [Hexamethonium]
[2]; CONTROL neuron
  ACh-induced depolarization: reduced the amplitude of ACh-induced depolarization relative to the control state; no APs were generated
[2]; DCX neuron
  ACh-induced depolarization: reduced the amplitude of ACh-induced depolarization; AP discharge was facilitated

## OC[C@@H](O)[C@H]1O[C@@H]2O[C@H](C(Cl)(Cl)Cl)O[C@@H]2[C@H]1O [alpha chloralose]
[3]; dog, in vivo, iv
  effect of each bolus on neuronal activity: suppressed neuronal activity for a few minutes

## N[C@@H](CCC(=O)O)C(=O)O [glutamate]
T3 neurons; after transection at the rostral C1 spinal cord
  spontaneous activity of T3 neurons and excitatory inputs from cardiac sensory neurons: still reduced
T3 neurons; glutamate pledget 1 M, 1-3 min, on C1-C2
  T3 neurons in which spontaneous activity and/or excitatory responses to intrapericardial bradykinin were inhibited: 77%
[4]
  neuronal response to epicardial application: activated

## NC[C@H](O)c1ccc(O)c(O)c1 [norepinephrine]
[5]
  identified intrinsic cardiac neurons whose properties are modified: about 25%

## CC(C)NC[C@H](O)COc1ccc(O)cc1 [prenaterol]
[4]
  neuronal response to epicardial application: activated

## CC(C)(C)NCC(O)c1cc(O)cc(O)c1 (centres unmarked) [terbutaline]
[4]
  neuronal response to epicardial application: inconsistent neuronal responses

## COc1ccc(C(=O)O[C@H]2CC[C@@]3(C)[C@@H]4CC[C@H]5[C@]6(O)C[C@H](O)[C@@]7(O)[C@@H](CN8C[C@@H](C)CC[C@H]8[C@@]7(C)O)[C@]6(O)C[C@@]53O[C@]24O)cc1OC [veratridine]
[3]; after application of SCS, four animals, from 11.8±2.5
  intrinsic cardiac neuronal activity with veratridine: 16.5±4.6 impulses/min
[3]; after completing the protocols, all 10 dogs, from 25.6±5.7
  intrinsic cardiac neuronal activity with veratridine: 40.6±12.5 impulses/min
[3]; before application of SCS, four animals
  intrinsic cardiac neuronal activity with veratridine: 40.5±26.7
[3]; after application of SCS, four animals, no significant difference
  enhancement of intrinsic cardiac neuronal activity: 39%
[3]; before application of SCS, four animals, P<0.05
  enhancement of intrinsic cardiac neuronal activity: 124%
[3]; epicardial veratridine, after completing the protocols (following SCS and regional ventricular ischaemia), all 10 dogs, P<0.05
  increase of intrinsic cardiac neuronal activity: 58%

## angiotensin II (DRVYIHPF; Angiotensin-2; UniProt P01019 25-32, looked up) [ANG II]
Right atrial neurons; ischemic ventricle, 1 minute
  regional ST segment changes: increased the area and magnitude
Right atrial neurons; normal myocardium
  electrical behavior: minimal changes
[4]
  neuronal response to epicardial application: inconsistent neuronal responses
[6]; ANG II 100 μM, 1 ml/min into RAGP blood supply, anesthetized dog
  NE concentration in the cardiac interstitial fluid (ISF): to the same extent as achieved during electrical stimulation of the stellate ganglia
[6]; ANG II stimulation
  EPI spillover into the coronary sinus: Neither stellate nor ANG II stimulation evoked EPI spillover

## nitroprusside
[4]
  neuronal response to epicardial application: responsive

## substance P (RPKPQQFFGLM-NH2; ends and bridges not checked; UniProt P20366 58-68, looked up)
Intracardiac neuron
  ACh evoked potentials: blocked
